The source of these data is PubChem BioAssay (NCI).

Holding throughout (test): NCI anticancer screen, dose series, 48 h
In assay [1] the test system is SN12C renal.
The test system of assay [2] is HOP-92 NSCLC.
Assay [3] relates to SK-MEL-2 melanoma.
In assay [4] the test system is HL-60(TB) leukemia.
Assay [5] concerns MCF7 breast.
The subject of assay [6] is K-562 leukemia.
Assay [7] deals with SK-OV-3 ovarian.
Assay [8] concerns U251 CNS.
The subject of assay [9] is UACC-257 melanoma.
Assay [10] concerns A498 renal.
Assay [11] deals with MDA-N.
For assay [12], the system named is HT29 colon.
Assay [13] relates to MALME-3M melanoma.
The test system of assay [14] is SK-MEL-28 melanoma.
The test system of assay [15] is SNB-19 CNS.
In assay [16] the test system is HOP-62 NSCLC.
For assay [17], the system named is BT-549 breast.
In assay [18] the test system is ACHN renal.
The subject of assay [19] is EKVX NSCLC.
For assay [20], the system named is HCC-2998 colon.

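Values below derive from 48-hour exposures of cells grown in 96-well plates, with endpoints linearly interpolated between the two concentrations bracketing the appropriate inhibition level. TGI denotes the concentration required for complete inhibition of growth.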

For the compound `COC(=O)C1=CS/C(=C2\S[C@@H]3[C@H](S2)[C@H]2C=C[C@@H]3C2)S1`, the TGI in assay [1] was > 100 µM; in assay [2] it was > 100 µM; in [3], > 100 µM; in assay [4], 57.9 µM; in assay [5] it was > 100 µM; in [6] it was 18.5 µM. For the same compound, the TGI in [7] was > 100 µM; in [8] it was > 100 µM; in assay [9] it was > 100 µM; in [10], > 100 µM; in assay [11], > 100 µM; in [12], 92.6 µM. The TGI in assay [13], in [14], in [15], in [16] and in assay [17] was > 100 µM each time.

For the compound `O=C1CC(c2cccc([N+](=O)[O-])c2)C2(C(=O)NC(=O)NC2=O)C(c2cccc([N+](=O)[O-])c2)C1` (stereo not drawn), the TGI was > 100 µM in assay [1]; > 100 µM in assay [2]; > 100 µM in assay [3]; > 100 µM in assay [4]; 44 µM in assay [5]; > 100 µM in assay [6]. For the same compound, the TGI in [7], in assay [8], in [9], in assay [10], in assay [11] and in assay [12] was > 100 µM each time. The TGI in assay [13] is 61.8 µM; in assay [14], > 100 µM; in [15], > 100 µM; in assay [16], > 100 µM; in assay [18], > 100 µM; in assay [17] it was > 100 µM.

For `CC(CC[C@@]1(C)C(=O)CCC2O[C@]21C)[C@H]1C[C@@H](c2ccoc2)OC1=O` (stereo partly drawn), the TGI in assay [1] is 79.9 µM; in [19] it was > 100 µM; in [2] it was 86.9 µM; in [3] it was > 100 µM; in [4], 47.6 µM; in [5], > 100 µM. For the same compound, the TGI was 51 µM in assay [6]; > 100 µM in assay [7]; > 100 µM in [8]; > 100 µM in assay [9]; > 100 µM in assay [10]; > 100 µM in assay [11]. Further, the TGI was > 100 µM in assay [12]; 81.3 µM in assay [13]; > 100 µM in assay [20]; 70.8 µM in assay [14]; > 100 µM in assay [15]; > 100 µM in assay [16]. Further, the TGI in assay [18] came out at 48 µM.

For `CC(=O)ONC(C(=O)C(C)(C)C)C(=O)C(C)(C)C`, the TGI in assay [1], in assay [19], in [2], in assay [3], in assay [4] and in [5] was > 100 µM throughout. The TGI in assay [6], in assay [7], in [8], in assay [9], in assay [10] and in [11] was > 100 µM in each case. Also, the TGI in assay [12], in assay [13], in assay [20], in assay [14], in assay [15] and in assay [16] was > 100 µM each time. Besides, the TGI in assay [18] was > 100 µM.

In the case of `O=C1NC(=S)NC(=O)C1C(c1ccc(O)cc1)C1C(=O)NC(=S)NC1=O`, the TGI in assay [1], in [2], in assay [3], in [4], in assay [5] and in [6] was > 100 µM throughout. For the same compound, the TGI in assay [8], in assay [9], in assay [10], in assay [11], in assay [12] and in assay [13] was > 100 µM in each case. Further, the TGI in assay [14], in [15], in assay [16], in assay [18] and in assay [17] was > 100 µM throughout.

On to `CC(C)=C[C@H]1CCC2(OCCO2)[C@]1(C)CO`, for which the TGI in [1], in assay [19], in assay [3], in [5], in assay [7] and in [9] was > 100 µM in each case. The TGI in [10], in assay [11], in [13], in assay [20], in assay [14] and in [15] was > 100 µM in each case. The TGI in [18] and in assay [17] was > 100 µM in each case.

With `CC(C)=C[C@H]1CCC2(OCCO2)[C@]1(C)COCc1ccccc1`, the TGI in [1] is 68.5 µM; in assay [19] it was > 100 µM; in [3], 85.9 µM; in [5], > 100 µM; in [7], > 100 µM; in assay [9], 46.4 µM. The TGI in [10] was 66.7 µM; in [11], > 100 µM; in assay [13] it was > 100 µM; in assay [20], 37.4 µM; in [14] it was > 100 µM; in assay [15] it was > 100 µM. Besides, the TGI in assay [18] and in [17] was > 100 µM in each case.

As to `C[N+]1(C)CCc2cc(O)c(O)cc2C1Cc1ccc(O)c(O)c1` (stereo not drawn), the TGI in assay [1] was > 100 µM; in assay [19] it was > 100 µM; in assay [2], 63.7 µM; in assay [3], > 100 µM; in assay [4] it was 54.8 µM; in [5], 43.3 µM. The TGI in assay [6] was > 100 µM; in assay [7], > 100 µM; in [8] it was > 100 µM; in assay [9] it was 86.9 µM; in assay [10], > 100 µM; in assay [11] it was 89.1 µM. Further, the TGI in assay [12] is > 100 µM; in [13], 91.4 µM; in assay [14] it was > 100 µM; in assay [15] it was > 100 µM; in assay [16], > 100 µM; in [18] it was > 100 µM. Also, the TGI in [17] is > 100 µM.

In the case of `CC1S/C(=N\N=C2/C(=O)Nc3ccc(Br)cc32)N(C2CCCCC2)C1=O` (stereo not drawn), the TGI in [1] is 12.3 µM; in assay [19], 22.2 µM; in assay [2] it was 25.4 µM; in assay [3] it was 3.65 µM; in [4] it was > 100 µM; in [5], 35 µM. Besides, the TGI in assay [6] is > 100 µM; in [7], 14 µM; in assay [8] it was 7.73 µM; in assay [9] it was > 100 µM; in [10], 12.5 µM; in assay [11], > 100 µM. Moreover, the TGI worked out at 53.2 µM in assay [12]; 31.1 µM in [13]; 45 µM in [20]; 23.8 µM in [14]; 14.8 µM in assay [15]; 4.25 µM in assay [16]. Besides, the TGI in [18] was 3.24 µM.

For the compound `O=C(c1cccs1)N1CCc2ccccc2C1`, the TGI in assay [1] was > 100 µM; in [19] it was > 100 µM; in [2], > 100 µM; in assay [3], > 100 µM; in assay [4], 76 µM; in [5], > 100 µM. In addition, the TGI in [6] was > 100 µM; in assay [7], > 100 µM; in assay [8] it was > 100 µM; in assay [9], > 100 µM; in assay [10], > 100 µM; in assay [11] it was 92.3 µM. For the same compound, the TGI in [12], in assay [13], in assay [20], in assay [14], in [15] and in assay [16] was > 100 µM throughout. Moreover, in [18], the TGI was > 100 µM.

Regarding `CCOC(=O)c1ccc(NCc2ccc3oc(=O)c(-c4ccccc4)nc3c2)cc1`, the TGI is > 100 µM in assay [1]; > 100 µM in assay [19]; 83 µM in assay [2]; > 100 µM in assay [3]; 13.2 µM in assay [4]; 38 µM in [5]. Also, the TGI in assay [6] was 85.8 µM; in assay [7], > 100 µM; in assay [8], > 100 µM; in assay [9], 42 µM; in assay [10] it was > 100 µM; in assay [11] it was 50.8 µM. Moreover, the TGI is > 100 µM in assay [12]; 38.8 µM in [13]; > 100 µM in [20]; 87.3 µM in assay [14]; > 100 µM in assay [15]; > 100 µM in assay [16]. The TGI in [18] is > 100 µM.

With `O=C(NC(Cc1ccccc1)(Cc1ccc(O)cn1)C(=O)O)c1ccccc1` (stereo not drawn), the TGI is > 100 µM in assay [19]; > 100 µM in [2]; > 100 µM in assay [3]; 68.2 µM in assay [4]; > 100 µM in [6]; > 100 µM in [7]. Further, the TGI in [8], in assay [9], in assay [11], in assay [12], in [13] and in assay [20] was > 100 µM throughout. Further, the TGI in assay [14], in assay [15], in assay [16], in assay [18] and in [17] was > 100 µM in each case.

As for `O=C1c2ccsc2C(=O)c2sc(CO)cc21`, the TGI in assay [1] was found to be 0.0818 µM; in assay [19], 2.39 µM; in [2], 0.994 µM; in [3], 0.232 µM; in assay [4], 3.72 µM; in assay [6] it was 2.48 µM. The TGI was 2.97 µM in [7]; 0.421 µM in assay [8]; 0.0993 µM in assay [9]; 0.792 µM in assay [10]; < 0.0177 µM in [11]; 0.444 µM in [12]. Moreover, the TGI in [13] was found to be 1.21 µM; in assay [20], 5.33 µM; in assay [14], 0.0614 µM; in assay [15], 0.218 µM; in assay [16], 0.325 µM; in [18], 0.238 µM. For the same compound, the TGI in [17] was determined as 0.0352 µM.

Regarding `CCCc1c(O)nc(Nc2nc3ccccc3[nH]2)[nH]c1=O`, the TGI in assay [1], in assay [19], in [2], in assay [3], in assay [4] and in assay [6] was > 100 µM each time. The TGI in [7], in assay [8], in assay [9], in assay [10], in assay [11] and in [12] was > 100 µM in each case. Besides, the TGI in assay [13], in assay [15], in assay [18] and in assay [17] was > 100 µM each time.

In the case of `CSc1nnc(SC)nn1`, the TGI in [1] amounted to 39.7 µM; in [19], 30.8 µM; in assay [2], 14.8 µM; in assay [4] it was 11.6 µM; in [5], 32.7 µM; in [6], 27.4 µM. Besides, the TGI in assay [7] is 49 µM; in assay [8] it was 41.8 µM; in [9], 30.3 µM; in assay [10], > 100 µM; in assay [11], 30.1 µM; in assay [12], 36.5 µM. For the same compound, the TGI in assay [13] worked out at 27 µM; in assay [15], 43.3 µM; in assay [16], 29.1 µM; in [18], 30.5 µM; in assay [17] it was 29.7 µM.

As to `C[C@@H](c1ccccc1)n1c(N)c(C#N)c2ccc([N+](=O)[O-])cc2c1=O`, the TGI was 28.4 µM in assay [1]; 24 µM in [2]; > 100 µM in assay [3]; 27.7 µM in assay [4]; 26.1 µM in assay [6]; 59.1 µM in [8]. Also, the TGI in assay [9] turned out to be 40.3 µM; in [10] it was 24.4 µM; in assay [11], 78.4 µM; in assay [12], 28.1 µM; in assay [20] it was 39.4 µM; in [14], 39.5 µM. Besides, the results for the TGI in assay [15], in assay [18] and in assay [17] were 29.1 µM, 29.5 µM and 30 µM, respectively.
